Usually Ki stands for the dissociation constant of the complex between target and ligand, obtained from inhibition or displacement.

In one assay the target is D(1A) dopamine receptor (Rattus norvegicus, UniProt P18901).
In a further assay the target is D(2) dopamine receptor (Rattus norvegicus, UniProt P61169).
Assay [1] in a line: Inhibition of Dopamine-stimulated adenylate cyclase obtained from rat corpus striatum was determined by the conversion of [32P]ATP to [32P]-cAMP.

Chain of D(1A) dopamine receptor (P18901 whole entry): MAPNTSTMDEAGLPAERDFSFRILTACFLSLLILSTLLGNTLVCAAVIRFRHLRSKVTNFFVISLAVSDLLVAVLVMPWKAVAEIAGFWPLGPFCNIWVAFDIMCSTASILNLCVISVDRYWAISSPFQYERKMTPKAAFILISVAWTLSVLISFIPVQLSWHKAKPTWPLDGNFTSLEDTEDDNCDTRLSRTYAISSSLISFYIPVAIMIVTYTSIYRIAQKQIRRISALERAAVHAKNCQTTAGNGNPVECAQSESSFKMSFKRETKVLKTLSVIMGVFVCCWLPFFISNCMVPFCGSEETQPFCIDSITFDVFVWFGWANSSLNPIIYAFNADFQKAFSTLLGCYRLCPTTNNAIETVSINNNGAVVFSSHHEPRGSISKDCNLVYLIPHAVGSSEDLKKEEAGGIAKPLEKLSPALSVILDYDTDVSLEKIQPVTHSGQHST
Chain of D(2) dopamine receptor (P61169 whole entry): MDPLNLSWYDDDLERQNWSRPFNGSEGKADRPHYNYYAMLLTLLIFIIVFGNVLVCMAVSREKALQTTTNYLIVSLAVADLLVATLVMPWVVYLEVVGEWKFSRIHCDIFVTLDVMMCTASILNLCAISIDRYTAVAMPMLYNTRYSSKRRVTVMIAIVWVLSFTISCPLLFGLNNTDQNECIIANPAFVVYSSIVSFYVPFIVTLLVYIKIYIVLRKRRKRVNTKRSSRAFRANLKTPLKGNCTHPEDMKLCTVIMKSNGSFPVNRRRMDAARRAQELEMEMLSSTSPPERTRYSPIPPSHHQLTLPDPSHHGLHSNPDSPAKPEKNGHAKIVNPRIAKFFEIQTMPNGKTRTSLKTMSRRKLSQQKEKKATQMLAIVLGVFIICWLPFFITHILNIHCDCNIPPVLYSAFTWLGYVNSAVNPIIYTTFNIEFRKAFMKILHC
Description for D(2) dopamine receptor: Inhibition of [3H]spiperone binding to Dopamine receptor D2 at 0.02 nM

With `Oc1cc2c(cc1Cl)CNCC2c1ccccc1` (racemic), the Ki worked out at 0.565 µM at D(1A) dopamine receptor and 3.62 µM on D(2) dopamine receptor.

`CN1Cc2cc(Cl)c(O)cc2C(c2ccccc2)C1` (racemic): the figures for the Ki on D(1A) dopamine receptor and on D(2) dopamine receptor were 0.174 µM and 0.522 µM, respectively.

Take `CCCN1CCc2cc(Cl)c(O)cc2[C@@H]1c1ccccc1`: the Ki on D(1A) dopamine receptor stood at 0.179 µM; at D(2) dopamine receptor, 1.9 µM.

For `CN1CCc2cc(Cl)c(O)cc2C1Cc1ccccc1` (racemic), the Ki on D(1A) dopamine receptor is 0.0532 µM; at D(2) dopamine receptor, 0.287 µM.

Take `Oc1cc2c(cc1Cl)CCNCC2c1ccccc1` (stereo unspecified): the Ki at D(1A) dopamine receptor turned out to be 0.00235 µM; on D(2) dopamine receptor, 0.676 µM.

For `Oc1cc2c(cc1Cl)CCN[C@H]2c1ccccc1`, the Ki was 0.14 µM on D(1A) dopamine receptor and 3.75 µM at D(2) dopamine receptor.

Regarding `Oc1cc2c(cc1Cl)CCN[C@@H]2c1ccccc1`, the Ki at D(1A) dopamine receptor was determined as 0.743 µM; on D(2) dopamine receptor, 26.3 µM.

As for `CN1CCc2cc(Cl)c(O)cc2[C@@H]1c1ccccc1`, the Ki was 0.0066 µM on D(1A) dopamine receptor and 1.85 µM on D(2) dopamine receptor.

As for `CN1CCc2cc(Cl)c(O)cc2C1c1ccccc1` (racemic), the Ki in assay [1] came out at 0.00898 µM; on D(1A) dopamine receptor, 0.0125 µM; on D(2) dopamine receptor, 0.915 µM.

On to `CN1CCc2cc(Cl)c(O)cc2[C@H]1c1ccccc1`, for which the Ki on D(1A) dopamine receptor is 0.442 µM; on D(2) dopamine receptor, 19.2 µM.

These data come from ChEMBL document CHEMBL1123976, “Synthesis and pharmacological characterization of 1-phenyl-, 4-phenyl-, and 1-benzyl-1,2,3,4-tetrahydroisoquinolines as dopamine receptor ligands” (J Med Chem, 1988).
